Measured values as given in US4564613A, “Pyridoindole derivatives, compositions and use” (Troponwerke GmbH & Co., priority 1983, dated 1986).

Columns and labels:
[1] = tested on: amphetamine-induced stereotype behavior in rats; experiment: Amphetamine potentiation (amphetamine-induced stereotype behavior in rats); format: in vivo; conditions: Rattus norvegicus, ip, compound intraperitoneally, 2 mg/kg of DL-amphetamine sulphate intravenous, read-out: ED50 (dose at which the amphetamine-induced behavior is intensified by 50%)
Description: (§1) Some test results for the new compounds of the general formula I which were tested for anxiolytic, nootropic and antidepressive properties are given below. The pilot tests used were inhibition of footshock induced aggression (Tedeschi et al., J. Pharmacol. Exp. Ther. 129, p. 28-34, 1954), for the anxiolytic action and the antitetrabenazine test (J. L. Howard et al., in: Antidepressants: Neurochemical, Behavioral and Clinical Perspectives, edited by S. J. Enna et al., Raven Press N.Y., pages 107-120, 1981) and amphetamine potentiation test (J. L. Howard et al., in: Antidepressants: Neurochemical, Behavioral and Clinical Perspectives, edited by S. J. Enna et al., Raven Press N.Y., pages 107-120, 1981) for the antidepressive action.
Substances having an antidepressive action potentiate the amphetamine-induced stereotype behavior in rats.
The ED50 value given is the dose at which the amphetamine-induced behavior is intensified by 50% following intravenous administration of 2 mg/kg of DL-amphetamine sulphate.

[2] = tested on: ptosis in mice induced by tetrabenazine; experiment: Tetrabenazine antagonism (ptosis in mice induced by tetrabenazine); format: in vivo; conditions: Mus musculus, ip, compound intraperitoneally, 20 mg/kg of tetrabenazine intraperitoneally, read-out: ED50 (dose at which the ptosis induced by tetrabenazine is reduced to 50%)
Description: as §1
Substances having an antidepressive action antagonize the ptosis in mice induced by tetrabenazine. The ED50 value indicates the dose at which the ptosis induced by 20 mg/kg of tetrabenazine intraperitoneally is reduced to 50%.

Row | Compound | ED50 [1] | ED50 [2]
1 | CN1Cc2c(ccc3cc[nH]c23)C(c2ccccc2)C1 (centres unmarked) [2 a] | 2.4 mg/kg | 0.3 mg/kg
2 | CN1Cc2c(ccc3c2NCC3)C(c2ccc(F)cc2)C1 (centres unmarked) [3 b] | 2.2 mg/kg | 0.01 mg/kg
3 | CN1Cc2c(ccc3c2NC(=O)C3=O)C(c2ccccc2)C1 (centres unmarked) [1 b] |  | 2 mg/kg
4 | CN1Cc2c(ccc3c2N(C)CC3)C(c2ccc(F)cc2)C1 (centres unmarked) [Compound 4, 1,8-Dimethyl-6-(fluorophenyl)-2,3,6,7,8,9-hexahydro-1H-pyrido[4,3-g]indole] |  | 0.01 mg/kg
5 | CN1Cc2c(ccc3c2NC(=O)C3=O)C(c2ccc(F)cc2)C1 (centres unmarked) [1 a] |  | 1 mg/kg
6 | CN1Cc2c(ccc3cc[nH]c23)C(c2ccc(F)cc2)C1 (centres unmarked) [2 b] | 3.9 mg/kg | 0.2 mg/kg
7 | CN1Cc2c(ccc3c2NCC3)C(c2ccccc2)C1 (centres unmarked) [3 a] | 1.2 mg/kg | 0.1 mg/kg
